Where two headings read alike, the source gives them in different places.
How the values were obtained:
[1] = target: Human α2δ-1 subunit of Cav2.2 calcium channel (Homo sapiens, UniProt P54289); assay: biochemical; assay type: binding
[2] = target: Human μ-opioid receptor (Homo sapiens, UniProt P35372); assay: biochemical; assay type: binding
[3] = binding to α2δ-1 subunit of voltage-gated calcium channels expressed as Ki, + also Ki>5000 nM or inhibition between 1% and 50%, read-out: α2δ-1 binding

Chain of Human α2δ-1 subunit of Cav2.2 calcium channel (P54289 25-1103): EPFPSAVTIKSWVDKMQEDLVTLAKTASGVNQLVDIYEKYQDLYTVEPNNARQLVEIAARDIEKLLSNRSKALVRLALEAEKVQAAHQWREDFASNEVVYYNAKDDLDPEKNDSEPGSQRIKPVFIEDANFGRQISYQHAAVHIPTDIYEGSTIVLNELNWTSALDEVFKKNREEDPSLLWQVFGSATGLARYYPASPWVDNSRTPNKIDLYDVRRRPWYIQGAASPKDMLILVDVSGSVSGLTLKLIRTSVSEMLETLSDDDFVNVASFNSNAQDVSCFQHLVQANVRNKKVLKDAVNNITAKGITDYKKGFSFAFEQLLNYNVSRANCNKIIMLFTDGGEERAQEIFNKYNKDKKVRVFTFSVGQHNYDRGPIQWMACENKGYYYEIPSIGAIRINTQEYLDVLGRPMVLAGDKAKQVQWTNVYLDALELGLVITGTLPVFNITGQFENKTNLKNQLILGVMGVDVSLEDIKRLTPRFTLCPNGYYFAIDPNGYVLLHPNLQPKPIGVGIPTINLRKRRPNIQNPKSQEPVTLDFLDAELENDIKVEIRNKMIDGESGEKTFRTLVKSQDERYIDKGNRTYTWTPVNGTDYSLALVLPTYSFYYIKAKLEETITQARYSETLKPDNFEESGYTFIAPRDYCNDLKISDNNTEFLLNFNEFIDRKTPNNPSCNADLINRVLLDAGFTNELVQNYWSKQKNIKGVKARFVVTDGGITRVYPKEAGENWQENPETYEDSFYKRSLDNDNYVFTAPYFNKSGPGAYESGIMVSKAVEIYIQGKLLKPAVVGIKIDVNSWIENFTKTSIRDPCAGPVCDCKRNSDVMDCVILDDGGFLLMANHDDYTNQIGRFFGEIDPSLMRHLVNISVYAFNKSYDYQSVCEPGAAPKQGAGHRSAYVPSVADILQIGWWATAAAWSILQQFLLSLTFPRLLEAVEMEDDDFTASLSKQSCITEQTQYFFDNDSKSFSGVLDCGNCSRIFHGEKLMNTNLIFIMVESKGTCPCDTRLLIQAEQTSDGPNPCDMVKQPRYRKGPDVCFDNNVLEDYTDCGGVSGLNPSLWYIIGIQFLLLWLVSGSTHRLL
Chain of Human μ-opioid receptor (P35372 whole entry): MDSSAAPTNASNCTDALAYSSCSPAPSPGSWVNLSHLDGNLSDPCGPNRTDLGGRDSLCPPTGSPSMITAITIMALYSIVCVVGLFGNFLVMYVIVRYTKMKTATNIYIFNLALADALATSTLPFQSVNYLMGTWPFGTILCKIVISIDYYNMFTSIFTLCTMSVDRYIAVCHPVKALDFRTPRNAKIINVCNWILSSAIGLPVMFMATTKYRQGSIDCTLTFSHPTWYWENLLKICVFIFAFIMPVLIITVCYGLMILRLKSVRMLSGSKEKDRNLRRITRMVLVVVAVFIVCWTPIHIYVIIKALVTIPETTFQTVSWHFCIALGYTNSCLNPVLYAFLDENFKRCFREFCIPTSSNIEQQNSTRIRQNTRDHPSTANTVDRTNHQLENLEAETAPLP

Row | Ki ([2]; read-out: μ-binding) [nM] | SMILES | Ki [1] [nM] | Ki [2] [nM] | other results
1 | > 500 | CCCC(c1nc2ccc(Br)cc2c(=O)n1CC(=O)O)N1C[C@@H](C)N[C@@H](C)C1 (stereo partly drawn) [Example 126, 2-(6-bromo-2-(1-((3S,5R)-3,5-dimethylpiperazin-1-yl)butyl)-4-oxoquinazolin-3(4H)-yl)acetic acid] |  |  | Ki ([1]; read-out: α2δ-1 binding): > 5000 nM
2 | > 500 | CCCC(c1nc2ccccc2c(=O)n1CCN(C)C)N1C[C@@H](C)N[C@@H](C)C1 (stereo partly drawn) [Example 128, 3-(2-(Dimethylamino)ethyl)-2-(1-((3S,5R)-3,5-dimethylpiperazin-1-yl)butyl)quinazolin-4(3H)-one] |  |  | Ki ([1]; read-out: α2δ-1 binding): 500 to 5000 nM
3 | > 500 | CCCC(c1nc2ccccc2c(=O)n1CCN(C)CCc1ccccc1)N1C[C@@H](C)N[C@@H](C)C1 (stereo partly drawn) [Example 129, 2-(1-((3S,5R)-3,5-dimethylpiperazin-1-yl)butyl)-3-(2-(methyl(phenethyl)amino)ethyl)quinazolin-4(3H)-one] |  |  | Ki ([1]; read-out: α2δ-1 binding): 500 to 5000 nM
4 | > 500 | CCCC(c1nc2ccccc2c(=O)n1CCN(C)CCCc1ccccc1)N1C[C@@H](C)N[C@@H](C)C1 (stereo partly drawn) [Example 130, 2-(1-((3S,5R)-3,5-dimethylpiperazin-1-yl)butyl)-3-(2-(methyl(3-phenylpropyl)amino)ethyl)quinazolin-4(3H)-one] |  |  | Ki ([1]; read-out: α2δ-1 binding): 500 to 5000 nM
5 | > 500 | CCCC(c1nc2ccccc2c(=O)n1CCN(C)C)N1C[C@@H](C)N(C)[C@@H](C)C1 (stereo partly drawn) [Example 131, 3-(2-(Dimethylamino)ethyl)-2-(1-((3S,5R)-3,4,5-trimethylpiperazine-1-yl)butyl)quinazolin-4(3H)-one] |  |  | Ki ([1]; read-out: α2δ-1 binding): > 5000 nM
6 |  | CCCC(c1nc2ccc(-c3ccncc3)cc2c(=O)n1CC)N1C[C@@H](C)N[C@@H](C)C1 (stereo partly drawn) [Example 132, 2-(1-((3S,5R)-3,5-Dimethylpiperazin-1-yl)butyl)-3-ethyl-6-(pyridin-4-yl)quinazolin-4(3H)-one] | < 500 | > 500 | 
7 |  | CCCC(c1nc2cc(-c3ccncc3)ccc2c(=O)n1CC)N1C[C@@H](C)N[C@@H](C)C1 (stereo partly drawn) [Example 133, 2-(1-((3S,5R)-3,5-dimethylpiperazin-1-yl)butyl)-3-ethyl-7-(pyridin-4-yl)quinazolin-4(3H)-one] | < 500 | > 500 | 
8 |  | CCCC(c1nc2cc(-c3cccc(O)c3)ccc2c(=O)n1CC)N1C[C@@H](C)N[C@@H](C)C1 (stereo partly drawn) [Example 134, 2-(1-((3S,5R)-3,5-dimethylpiperazin-1-yl)butyl)-3-ethyl-7-(3-hydroxyphenyl)quinazolin-4(3H)-one] | < 500 | > 500 | 
9 |  | CCCC(c1nc2cc(-c3ccnc(OC)c3)ccc2c(=O)n1CC)N1C[C@@H](C)N[C@@H](C)C1 (stereo partly drawn) [Example 135, 2-(1-((3S,5R)-3,5-dimethylpiperazin-1-yl)butyl)-3-ethyl-7-(2-methoxypyridin-4-yl)quinazolin-4(3H)-one] | < 500 | > 500 | 
10 | > 500 | CCCC(c1nc2cc(-c3ccnc(CNC)c3)ccc2c(=O)n1C)N1C[C@@H](C)N[C@@H](C)C1 (stereo partly drawn) [Example 136, 2-(1-((3S,5R)-3,5-dimethylpiperazin-1-yl)butyl)-3-methyl-7-(2-((methylamino)methyl)pyridin-4-yl)quinazolin-4(3H)-one] |  |  | Ki ([1]; read-out: α2δ-1 binding): 500 to 5000 nM
11 |  | CCCC(c1nc2cc(N3CCCC3)ccc2c(=O)n1CC)N1C[C@@H](C)N[C@@H](C)C1 (stereo partly drawn) [Example 137, 2-(1-((3S,5R)-3,5-Dimethylpiperazin-1-yl)butyl)-3-ethyl-7-(pyrrolidin-1-yl)quinazolin-4(3H)-one] | < 500 | > 500 | 
12 |  | CCCC(c1nc2ccc(N3CCCC3)cc2c(=O)n1CC)N1C[C@@H](C)N[C@@H](C)C1 (stereo partly drawn) [Example 138, 2-(1-((3S,5R)-3,5-dimethylpiperazin-1-yl)butyl)-3-ethyl-6-(pyrrolidin-1-yl)quinazolin-4(3H)-one] | < 500 | > 500 | 
13 |  | CCCC(c1nc2ccc(N3CCC(N(C)C)CC3)cc2c(=O)n1CC)N1C[C@@H](C)N[C@@H](C)C1 (stereo partly drawn) [Example 139, 6-(4-(dimethylamino)piperidin-1-yl)-2-(1-((3S,5R)-3,5-dimethylpiperazin-1-yl)butyl)-3-ethylquinazolin-4(3H)-one] | < 500 | > 500 | 
14 |  | CCCC(c1nc2ccc(N3CCC(NC)CC3)cc2c(=O)n1CC)N1C[C@@H](C)N[C@@H](C)C1 (stereo partly drawn) [Example 140, 2-(1-((3S,5R)-3,5-dimethylpiperazin-1-yl)butyl)-3-ethyl-6-(4-(methylamino)piperidin-1-yl)quinazolin-4(3H)-one] | < 500 | > 500 | 
15 |  | CCCC(c1nc2ccc(N3CCC(N)CC3)cc2c(=O)n1CC)N1C[C@@H](C)N[C@@H](C)C1 (stereo partly drawn) [Example 141, 6-(4-aminopiperidin-1-yl)-2-(1-((3S,5R)-3,5-dimethylpiperazin-1-yl)butyl)-3-ethylquinazolin-4(3H)-one] | < 500 | > 500 | 
16 |  | CCCC(c1nc2ccc(N(C)C3CCN(C)CC3)cc2c(=O)n1CC)N1C[C@@H](C)N[C@@H](C)C1 (stereo partly drawn) [Example 143, 2-(1-((3S,5R)-3,5-dimethylpiperazin-1-yl)butyl)-3-ethyl-6-(methyl(1-methylpiperidin-4-yl)amino)quinazolin-4(3H)-one] | < 500 |  | Ki ([2]; binding to μ-opioid receptor expressed as Ki, + also Ki>500 nM or inhibition between 1% and 50%, read-out: μ-binding): > 500 nM
17 |  | CCCC(c1nc2ccc(N(C)Cc3ccccc3)cc2c(=O)n1CC)N1C[C@@H](C)N[C@@H](C)C1 (stereo partly drawn) [Example 144, 6-(benzyl(methyl)amino)-2-(1-((3S,5R)-3,5-dimethylpiperazin-1-yl)butyl)-3-ethylquinazolin-4(3H)-one] | < 500 | > 500 | 
18 |  | CCCC(c1nc2ccc(NCCNC)cc2c(=O)n1CC)N1C[C@@H](C)N[C@@H](C)C1 (stereo partly drawn) [Example 145, 2-(1-((3S,5R)-3,5-dimethylpiperazin-1-yl)butyl)-3-ethyl-6-((2-(methylamino)ethyl)amino)quinazolin-4(3H)-one] | < 500 | > 500 | 
19 |  | CCCC(c1nc2ccc(N(C)CCNC)cc2c(=O)n1CC)N1C[C@@H](C)N[C@@H](C)C1 (stereo partly drawn) [Example 146, 2-(1-((3S,5R)-3,5-dimethylpiperazin-1-yl)butyl)-3-ethyl-6-(methyl(2-(methylamino)ethyl)amino)quinazolin-4(3H)-one] | < 500 | > 500 | 
20 |  | CCCC(c1nc2cc(NCCNC)ccc2c(=O)n1CC)N1C[C@@H](C)N[C@@H](C)C1 (stereo partly drawn) [Example 147, 2-(1-((3S,5R)-3,5-dimethylpiperazin-1-yl)butyl)-3-ethyl-7-((2-(methylamino)ethyl)amino)quinazolin-4(3H)-one] | < 500 | > 500 | 
21 |  | CCCC(c1nc2ccc(N3CC=C(c4ccccc4O)CC3)cc2c(=O)n1CC)N1C[C@@H](C)N[C@@H](C)C1 (stereo partly drawn) [Example 148, 2-(1-((3S,5R)-3,5-dimethylpiperazin-1-yl)butyl)-3-ethyl-6-(4-(2-hydroxyphenyl)-5,6-dihydropyridin-1(2H)-yl)quinazolin-4(3H)-one] | < 500 | > 500 | 
22 |  | CCCC(c1nc2ccc(N3CCC(N(C)Cc4ccccc4)CC3)cc2c(=O)n1CC)N1C[C@@H](C)N[C@@H](C)C1 (stereo partly drawn) [Example 151, 6-(4-(benzyl(methyl)amino)piperidin-1-yl)-2-(1-((3S,5R)-3,5-dimethylpiperazin-1-yl)butyl)-3-ethylquinazolin-4(3H)-one] | < 500 | > 500 | 
23 | > 500 | CCC[C@@H](c1nc2ccc(N3C[C@H](C)OC4(CCNCC4)C3)cc2c(=O)n1CC)N1C[C@@H](C)N[C@@H](C)C1 [Example 152, 2-((S)-1-((3S,5R)-3,5-Dimethylpiperazin-1-yl)butyl)-3-ethyl-6-((S)-2-methyl-1-oxa-4,9-diazaspiro[5.5]undecan-4-yl)quinazolin-4(3H)-one] |  |  | Ki ([1]; read-out: α2δ-1 binding): 500 to 5000 nM
24 | > 500 | CCC[C@H](c1nc2ccc(N3C[C@H](C)OC4(CCNCC4)C3)cc2c(=O)n1CC)N1C[C@@H](C)N[C@@H](C)C1 [Example 153, 2-((R)-1-((3S,5R)-3,5-dimethylpiperazin-1-yl)butyl)-3-ethyl-6-((S)-2-methyl-1-oxa-4,9-diazaspiro[5.5]undecan-4-yl)quinazolin-4(3H)-one] |  |  | Ki ([1]; read-out: α2δ-1 binding): 500 to 5000 nM
25 |  | CCC[C@@H](c1nc2ccc(N3C[C@@H](C)OC4(CCN(CCc5ccccc5)CC4)C3)cc2c(=O)n1CC)N1C[C@@H](C)N[C@@H](C)C1 [Example 154, 2-((S)-1-((3S,5R)-3,5-Dimethylpiperazin-1-yl)butyl)-3-ethyl-6-((R)-2-methyl-9-phenethyl-1-oxa-4,9-diazaspiro[5.5]undecan-4-yl)quinazolin-4(3H)-one] | < 500 | > 500 | 
26 |  | CCC[C@@H](c1nc2ccc(N3C[C@H](C)OC4(CCN(CCc5ccccc5)CC4)C3)cc2c(=O)n1CC)N1C[C@@H](C)N[C@@H](C)C1 [Example 155, 2-((S)-1-((3S,5R)-3,5-dimethylpiperazin-1-yl)butyl)-3-ethyl-6-((S)-2-methyl-9-phenethyl-1-oxa-4,9-diazaspiro[5.5]undecan-4-yl)quinazolin-4(3H)-one] | < 500 | > 500 | 
27 |  | CCC[C@H](c1nc2ccc(N3C[C@H](C)OC4(CCN(CCc5ccccc5)CC4)C3)cc2c(=O)n1CC)N1C[C@@H](C)N[C@@H](C)C1 [Example 156, 2-((R)-1-((3S,5R)-3,5-dimethylpiperazin-1-yl)butyl)-3-ethyl-6-((S)-2-methyl-9-phenethyl-1-oxa-4,9-diazaspiro[5.5]undecan-4-yl)quinazolin-4(3H)-one] |  | > 500 | Ki [1, 3]: 500 to 5000 nM
28 |  | CCC[C@H](c1nc2ccc(N3C[C@@H](C)OC4(CCN(CCc5ccccc5)CC4)C3)cc2c(=O)n1CC)N1C[C@@H](C)N[C@@H](C)C1 [Example 157, 2-((R)-1-((3S,5R)-3,5-dimethylpiperazin-1-yl)butyl)-3-ethyl-6-((R)-2-methyl-9-phenethyl-1-oxa-4,9-diazaspiro[5.5]undecan-4-yl)quinazolin-4(3H)-one] |  | > 500 | Ki [1, 3]: 500 to 5000 nM

Row | SMILES | Ki ([2]; read-out: μ-binding) [nM] | Ki [1] [nM] | Ki [2] [nM] | other results
29 | CCCC(c1nc2ccccc2c(=O)n1CCNC)N1C[C@@H](C)N[C@@H](C)C1 (stereo partly drawn) [Example 127, 2-(1-((3S,5R)-3,5-Dimethylpiperazin-1-yl)butyl)-3-(2-(methylamino)ethyl)quinazolin-4(3H)-one] | > 500 | 500 to 5000 |  | 

From patent publication US20220002314A1 (priority 2018, published 2022)
